Values of other authors as cited in US20260207569A1, “LPA1 ANTAGONISTS FOR TREATING INTERSTITIAL LUNG DISEASE” (Bristol-Myers Squibb Company, priority 2022, published 2026).

Columns and labels:
[1] = test system: patients with IPF; conditions: cited from earlier work
[2] = test system: patients with PPF; conditions: 52-week study period; cited from earlier work

SMILES | Effect on decline in lung function [1] | Progression of lung fibrosis (annual rate of decline in FVC) vs placebo [2]
COC(=O)c1ccc2c(c1)NC(=O)/C2=C(\Nc1ccc(N(C)C(=O)CN2CCN(C)CC2)cc1)c1ccccc1 [nintedanib] | significantly reduce the decline in lung function | slower progression of lung fibrosis than those who received placebo
Cc1ccc(=O)n(-c2ccccc2)c1 [pirfenidone] | significantly reduce the decline in lung function | 
